The text below walks through data of patent US20040186085A1, “Composition containing a steroid and a glycol” (priority 2001, published 2004).

One data set relates to fibroblast. The following applies: cited from earlier work.
The subject of another data set is skin. Conditions: rat; cited from earlier work.
In another data set the test system is human keratinocytes. Conditions: cited from earlier work.
Data set [1] can be described thus: Solubility of DHEA at ambient temperature in different solvents (HPLC of supernatant). Format: physicochemical. Conditions: ambient temperature (25° C.), after 24 hours. Here is the method: The solubility of DHEA was evaluated at ambient temperature in different solvents. For this purpose the DHEA was dispersed in excess in the solvent in question, which had been brought to 60° C. beforehand. This temperature was maintained for one hour, with stirring using a magnetic bar. The suspension was subsequently returned to ambient temperature (25° C.). After 24 hours the suspension was centrifuged in order to remove the undissolved DHEA crystals. The supernatant was taken and checked for the absence of DHEA crystals by cross-polarized light microscopy. This supernatant was subsequently analysed by HPLC. The amount of DHEA detected is taken to correspond to its maximum solubility in the solvent in question.

`C[C@]12CC[C@H](O)CC1=C[C@@H](O)[C@@H]1[C@@H]2CC[C@]2(C)C(=O)CC[C@@H]12` [7α-hydroxy-DHEA]: the fibroblast proliferation result with fibroblast is “increase”. Further, in the data set on skin, the “elastin content and collagen content of the skin” value is recorded as “increases”; the “thickness of the dermis” value was “increases”. Also, the “viability of human keratinocytes” value in the data set with human keratinocytes is reported as “increase”.
Turning to `C[C@]12CC[C@H](O)CC1=CC[C@@H]1[C@@H]2CC[C@]2(C)C(=O)CC[C@@H]12` [DHEA, dehydroepiandrosterone], the DHEA solubility in data set [1] (solvent Dipropylene glycol) amounted to 10.48% by weight; in data set [1] (solvent Glycerol) it was 0.15% by weight; in data set [1] (solvent PEG-400), 3.67% by weight; in data set [1] (solvent Propylene glycol) it was 5.88% by weight; in data set [1] (solvent Sorbitol), 0.05% by weight.
